From patent US9034859B2, “Sulfated oxysterol and oxysterol sulfation by hydroxysterol sulfotransferase promote lipid homeostasis and liver proliferation” (Virginia Commonwealth University, priority 2011, dated 2015)

Legend:
[1] = test system: primary rat hepatocytes (PRH); assay: Western blot in primary rat hepatocytes (Example 4); type: cell-based; conditions: Ad-Control-infected group, T0901317 1.5 μM or 25HC 3 μM
Experimental: PRH were prepared as previously described (24). Briefly, parenchymal cells (3.5×10^6) were inoculated in 60-mm plastic Petri dishes coated with rat tail collagen. The plates contained 3 ml of Williams E culture media supplemented with thyroxine (1 μM), dexamethasone (0.1 μM), and penicillin (100 units/ml). Three hours after plating, culture medium was removed and fresh medium was added. Cells were then infected with Ad-SULT2B1b at a multiplicity (MOI) of 10 plaque forming units/cell (pfu/cell) or 100 nM of siRNA-SULT2B1b (ON-TARGET plus siRNA of rat SULT2B1b, Thermo Scientific Dharmacon, Lafayette, Colo.) as previously described (31). The Ad-Control and siRNA-Control (ON-TARGET plus negative control siRNA) were used as controls, respectively. Twenty four hours after infection, cells were treated with T0901317 (1.5 μM) or 25HC (3 μM) for another 24 hours. The cells were harvested at the timepoints as indicated in the text.
Cell lysates were prepared from frozen mouse liver tissues or PRH, and 50 μg of the total proteins were separated by 10% SDS-PAGE, transferred to polyvinylidene difluoride membrane (Millipore, Eschbom, Germany). Specific protein was probed with specific antibodies against PCNA, human SULT2B1b (Santa Cruz Biotechnology, Santa Cruz, Calif.), LXRα (Abcam, Cambridge, Mass.), ATP-binding cassette transporters 1 (ABCA1) (Abcam, Cambridge, Mass.), and SREBP1 (Santa Cruz Biotechnology, Santa Cruz, Calif.). β-Actin (Sigma-Aldrich, St. Louis, Mo.) was used as a loading control. Western analysis was performed by methods known in the art.

LXR signaling pathway = assay: Western blot of LXR and its target genes and PCNA in mouse liver (Example 3); type: in vivo, C57BL/6 mice; conditions: 5 mg/kg i.v.
Experimental: Cayman Chemical, Ann Arbor, Mich.); […] […] Metabolism. (Accepted)]. […] Cell lysates were prepared from frozen mouse liver tissues. Total proteins, 100 μg, were separated by 10% SDS-PAGE, and transferred to PVDF membrane (Millipore, Eschbom, Germany). […] Louis, Mo.) was used as a loading control. The immunoreactive bands were detected by Fujifilm Medical System (Fujifilm, Stamford, Conn.) and quantified by Advanced Image Data Analyzer (Aida Inc., Straubenhardt, Germany).

With O=S(=O)(c1ccccc1)N(CC(F)(F)F)c1ccc(C(O)(C(F)(F)F)C(F)(F)F)cc1 [T0901317, reference compound] the “LXR response gene expressions” value [1] was “significantly increased”, the PCNA expression [1] was “decreased” and the “25HC3S-induced PCNA expression” value (LXR signaling pathway; day 2) was “significantly repressed”. For the same compound, the “expressions of LXR target genes ABCA1 and SREBP-1c” value (LXR signaling pathway; day 2, presence and absence of 25HC3S, vs vehicle) was “induced”.
